From PubChem BioAssay (NCI) come the findings set out here.

Among the test systems are RPMI-8226 leukemia; P388/ADR leukemia; U251 CNS; KM12 colon; A498 renal; SF-268 CNS; COLO 205 colon; HOP-18 NSCLC; KM20L2 colon; MOLT-4 leukemia; PC-3 prostate; MDA-MB-231 breast; MDA-MB-435.
What all share (test): NCI tumour cell line growth inhibition, 48 h

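A five-concentration, 48-hour dose response in 96-well plates underlies each endpoint, interpolated linearly between surrounding concentrations. GI50: concentration for 50% inhibition of growth. TGI denotes the concentration required for complete inhibition of growth.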

As for `COc1cc(C2c3cc4c(cc3[C@@H](Nc3cnc5ccccc5c3)C3COC(=O)[C@H]23)OCO4)cc(OC)c1O` (stereo not given in full), the TGI amounted to 1.9 µM with RPMI-8226 leukemia; 1.36 µM in the experiment on P388/ADR leukemia; 0.6 µM in the experiment on U251 CNS; 2.67 µM with KM12 colon; 1.38 µM in the experiment with A498 renal; 3.9 µM with SF-268 CNS. The values for the TGI with COLO 205 colon and in the experiment with HOP-18 NSCLC were 3.39 µM and 2.65 µM, respectively.

As to `O=C1Sc2sc(=S)sc2SC1c1ccccc1` (stereo not given), the TGI in the experiment on KM20L2 colon is above 100 µM; with RPMI-8226 leukemia, above 100 µM; with P388/ADR leukemia, above 67.7 µM; in the experiment on U251 CNS it was above 100 µM; with KM12 colon, above 100 µM; with A498 renal, above 100 µM. For the same compound, the TGI in the experiment on MOLT-4 leukemia was above 100 µM; in the experiment on SF-268 CNS, above 100 µM; with COLO 205 colon it was above 63.6 µM; in the experiment on HOP-18 NSCLC it was above 100 µM.

Turning to `C=CCn1c(C)nc2cc(Nc3nc(N4CCCC4)nc4nc[nH]c34)ccc21`, the GI50 in the experiment with RPMI-8226 leukemia was above 100 µM; in the experiment with PC-3 prostate, above 100 µM; with A498 renal, above 100 µM; in the experiment with MOLT-4 leukemia, above 100 µM; in the experiment on COLO 205 colon it was 3.16 µM. Further, the TGI with RPMI-8226 leukemia, in the experiment with PC-3 prostate, in the experiment on A498 renal, in the experiment on MOLT-4 leukemia and in the experiment on COLO 205 colon was above 100 µM each time.

With `C=C1C(=O)OC2/C=C(CO)/C=C\C3OC3(C)CC(OC(=O)/C(C)=C/COC(C)=O)C12` (stereo not given), the TGI in the experiment on MDA-MB-231 breast was 9.13 µM; in the experiment with KM20L2 colon it was 17 µM; with RPMI-8226 leukemia, 4.33 µM; with MDA-MB-435, 4.32 µM; with PC-3 prostate it was 21.6 µM; in the experiment on U251 CNS it was 14.5 µM. For the same compound, the TGI in the experiment with KM12 colon stood at 14.2 µM; in the experiment with A498 renal, 20.6 µM; in the experiment on MOLT-4 leukemia, 5.49 µM; in the experiment with SF-268 CNS, 15.4 µM; in the experiment with COLO 205 colon, 2.99 µM; in the experiment with HOP-18 NSCLC it was 22.1 µM.

As to `Nc1nc2cc(COc3ccc(C(=O)O)cc3)ccc2nc1-c1ccccc1`, the TGI with MDA-MB-231 breast, in the experiment with RPMI-8226 leukemia, in the experiment on MDA-MB-435, in the experiment on PC-3 prostate, in the experiment with U251 CNS and in the experiment with KM12 colon was above 10 µM each time. Further, the TGI with MOLT-4 leukemia, in the experiment with SF-268 CNS and in the experiment with COLO 205 colon was above 10 µM each time.

For the compound `Cc1c2cnccc2c(C)c2c1c1ccccc1n2CCCCCCCl`, the TGI in the experiment on KM20L2 colon is above 50 µM; in the experiment on RPMI-8226 leukemia, above 48.9 µM; with P388/ADR leukemia it was above 50 µM; with U251 CNS, above 50 µM; in the experiment with KM12 colon, above 50 µM; in the experiment with A498 renal, above 50 µM. Besides, the TGI in the experiment with MOLT-4 leukemia was above 50 µM; in the experiment on SF-268 CNS, above 50 µM; in the experiment with COLO 205 colon, above 34.1 µM; in the experiment with HOP-18 NSCLC, above 7.93 µM.

`C=C1C(=O)OC2/C=C(\CO)C3OC3C3OC3(C)CC(OC(=O)/C(=C/C)COC(C)=O)C12` (stereo not given): the TGI in the experiment on MDA-MB-231 breast is 19.5 µM; with KM20L2 colon, 20.5 µM; in the experiment on RPMI-8226 leukemia, above 100 µM; in the experiment with MDA-MB-435, 7.88 µM; in the experiment with PC-3 prostate it was 27 µM; with U251 CNS, 16.8 µM. The TGI with KM12 colon was 19 µM; in the experiment with A498 renal it was 27.7 µM; with MOLT-4 leukemia it was above 100 µM; with SF-268 CNS, 27.1 µM; with COLO 205 colon, 3.06 µM; in the experiment on HOP-18 NSCLC it was 21.6 µM.

Regarding `O=C(N/N=C/c1cc(Cl)cc(Cl)c1[O-])c1ccccc1O.O=C(N/N=C/c1cc(Cl)cc(Cl)c1[O-])c1ccccc1O.[Mn+2]`, the GI50 was 2.78 µM with KM20L2 colon, 0.448 µM in the experiment with KM12 colon and 0.289 µM in the experiment on MOLT-4 leukemia. In addition, the TGI turned out to be 5.52 µM with U251 CNS, 15.9 µM in the experiment on KM12 colon, 14.8 µM in the experiment with MOLT-4 leukemia and 11.5 µM with SF-268 CNS.

For the compound `CS(C)(=O)=Nn1c(=O)n2n(c1=O)[C@H]1CC[C@@H]2C1`, the TGI with MDA-MB-231 breast, in the experiment on RPMI-8226 leukemia, with MDA-MB-435, in the experiment on PC-3 prostate, in the experiment with U251 CNS and in the experiment with KM12 colon was above 100 µM in each case. The TGI in the experiment on A498 renal, in the experiment with MOLT-4 leukemia, with SF-268 CNS and in the experiment on COLO 205 colon was above 100 µM in each case.

As for `CSc1nc2c(ncn2C2OC(CO)C(O)C(O)C2O)c(=O)n1C` (stereo not given), the TGI in the experiment with KM20L2 colon, in the experiment on RPMI-8226 leukemia, with U251 CNS, in the experiment with KM12 colon, with A498 renal and with MOLT-4 leukemia was above 100 µM throughout. The TGI in the experiment on SF-268 CNS, in the experiment on COLO 205 colon and in the experiment on HOP-18 NSCLC was above 100 µM in each case.

As to `O=C(O)C(C1NCCS1)N1C(=O)c2ccccc2C1=O` (stereo not given), the TGI in the experiment with MDA-MB-231 breast, in the experiment with RPMI-8226 leukemia, in the experiment with MDA-MB-435, in the experiment with PC-3 prostate, in the experiment with U251 CNS and in the experiment with KM12 colon was above 100 µM throughout. Also, the TGI in the experiment on A498 renal, in the experiment with MOLT-4 leukemia, with SF-268 CNS and in the experiment on COLO 205 colon was above 100 µM throughout.

For the compound `COc1ccc2[nH]c(=O)cc(C)c2c1[N+](=O)[O-]`, the TGI with KM20L2 colon, in the experiment with RPMI-8226 leukemia, with U251 CNS, with KM12 colon, in the experiment with A498 renal and with MOLT-4 leukemia was above 100 µM throughout. In addition, the TGI in the experiment with SF-268 CNS and with COLO 205 colon was above 100 µM in each case.
